Test results published in patent US20100284925A1, “Small Molecule Intervention for Obesity” (priority 2006, published 2010).

Key:
[1] = Observation of overt toxicity in treated animals; format: in vivo; details: animals given the drug for the duration of the experiments
PLTP [2] = assay: PLTP release into conditioned media (Western blot); format: cell-based
Protocol: (§1) FIG. 10. Release of adiponectin and PLTP by preadipocytes and adipocytes, and in serum of normal mice. Preadipocytes (B and D) were treated with 2 μM of prieurianin and media collected after 36 hrs for Western blot analysis of either adiponectin (A and B) or PLTP (C and D). Alternatively, five days following differentiation, conditioned media of adipocyets (A and C) were collected for Western analysis. E. Serum of normal C57BL/6J mice given prieurianin or topotecan (0, 2, 5, and 10 mg/kg) was analyzed by Western blot for PLTP.
The expression and secretion of PLTP by preadipocytes and adipocytes was also assessed. Thus, preadipocytes produced and released both the low and the high molecular weight forms of PLTP, while adipocytes secreted only the low molecular weight form (see FIGS. 10C and 10D) into the conditioned media.

[3] = Body weight in leptin-receptor deficient db/db mice; format: in vivo
Protocol: FIG. 15A. Groups of 10 db/db mice were given either 3 or 5 mg/kg of prieurianin i.p. daily for 30 days.
The effects of prieurianin were tested in three additional mouse models of obesity including the genetically hyperinsulinemic leptin-receptor deficient db/db, the Ceacam−/− glucose intolerant/diabetic, and the diet-induced obese mice. Prieurianin was administered intraperitoneally (i.p.) to 12-14 week-old db/db mice daily (3 or 5 mg/kg) for 30 days. The diet-induced obese Ceacam−/− diabetic mice were fed a high fat diet for 4 weeks for fattening, followed by prieurianin treatment (3 or 5 mg/kg) for 3 weeks. Vehicle treated controls received equivolume injections of Captisol (CyDex Inc., Lenexa, Kans.). Body weight and food intake were measured every three days, and blood samples were collected at the end of the experiment.

PLTP promoter = assay: PLTP-promoter luciferase reporter in HepG2 and transgenic HepG2/PLTPpLuc cells; format: cell-based, human; details: luciferase reporter, HepG2 or HepG2/PLTPpLuc cells
From the text: FIG. 2A. A 1.5 Kb PLTP promoter fused to a luciferase reporter was transactivated by topotecan dose-dependently.
FIG. 2B. Activation of PLTP promoter by topotecan in HepG2 transgenic cells containing the PLTP-promoter luciferase reporter gene fused to the neomycin selectable marker cassette and stably transfected into HepG2 cells to generate the transgenic line (Top panel). Dose-dependent induction of PLTP promoter by topotecan (Bottom panel). Results are the means S.E. of three experiments after normalization with Renilla luciferase.
FIG. 3A. Dose-dependent transactivation of the PLTP promoter by prieurianin in the HepG2 transgenic cells. Results are the means S.E. of three experiments after normalization with Renilla luciferase.
FIG. 3B. […] 1, Control; 2. […] Results are the means±S.E. of triplicate experiments.
FIG. 11. Transactivation of PLTP promoter by cytotoxic and non-cytotoxic drugs. Survey of transactivation of the PLTP promoter by various cytotoxic and non-cytotoxic drugs in the HepG2 transgenic cells was conducted. Results are the means S.E. of three experiments.
FIG. 12. Effects of trichostatin A (TSA) on transactivation of PLTP promoter by prieurianin. Dose response activation of PLTP promoter by prieurianin either in the presence or the absence of 200 nM TSA. Results are the means S.E. of three experiments.
To determine whether non-cytotoxic small molecules could induce PLTP expression, the inventor herein subcloned the PLTP-promoter luciferase reporter into a vector containing a neomycin (G418)-resistance selectable marker and generated a transgenic HepG2 cell line, which harbors the PLTP-promoter luciferase reporter, by stable gene transfection and selection with G418.
The transgenic cells were then screened with a library of small molecules derived from natural products.

[4] = Body weight, food intake, serum parameters and adiposity in normal C57BL/6J mice; format: in vivo
Protocol: (§2) FIG. 4. Effects of prieurianin on blood insulin, glucose and NEFA levels. Normal and ob/ob mice were treated with 5 mg/kg of prieurianin and serum samples were then collected for (FIG. 4A) insulin; (FIG. 4B) glucose; and (FIG. 4C) non-esterified fatty acid (NEFA) profiling. Results are means of three animals per group for each treatment. Blue column, normal C57BL/6J; and red column, leptin-deficient ob/ob mice.
(§3) Prieurianin was administered intraperitoneally to 12-14 week-old normal C57BL/6J mice and the genetically leptin-deficient ob/ob mice (2 or 5 mg/kg) twice a week for two weeks. Controls received equivolume injections of drug vehicle. Body weight and food intake were measured every three days, and blood samples were collected at the end of the experiment.
(§4) Obesity contributes to hypertension, high serum cholesterol, low HDL cholesterol, and hyperglycemia, thus potentially leading to higher risk of cardiovascular disease. Abdominal obesity especially correlates with metabolic risk factors. The leptin-deficient ob/ob mice are hyperlipidemic, and hyperglycemic. To test whether prieurianin altered the metabolic or endocrinological parameters in addition to appetite, the serum lipid profile, insulin and glucose levels were measured.
(§5) To further examine the effects of prieurianin on the adiposity of the normal C57BL/6J and the ob/ob mice, we measured their visceral and subcutaneous body fat.

[5] = Body weight, food intake, serum parameters and adiposity in leptin-deficient ob/ob mice; format: in vivo
Protocol: as §2
FIG. 5. Effects of prieurianin on adiposity in ob/ob mice. The leptin-deficient ob/ob mice were treated with 5 mg/kg of prieurianin and subcutaneous and visceral adipose tissues were excised and weighed. Results are means of three to five animals per group as indicated (n).
as §3, §4, §5

PLTP [6] = assay: Serum PLTP protein by Western blot in normal C57BL/6J mice; format: in vivo; details: normal C57BL/6J mice, 0, 2, 5 and 10 mg/kg
Protocol: as §1

NIH-3T3/L1 preadipocytes = format: cell-based; details: 2 μM
Protocol: FIG. 7D. Flow cytometric analysis of annexin V binding to phosphatidylserine, apoptotic cells are on the upper right quadrant. All experiments were conducted in triplicate.

With `C=C1[C@@H]([C@@]2(C)[C@@H](OC(C)=O)CC(=O)O[C@](C)(COC(C)=O)[C@@H]2C(=O)OC)[C@@H](OC=O)[C@H](OC(=O)[C@H](O)[C@H](C)CC)[C@@]2(C)[C@H](c3ccoc3)CC(=O)[C@]12O` [prieurianin] the overt toxicity [1] was “no overt toxicity was observed”, the “release of PLTP by adipocytes” value (PLTP [2]; adipocytes) was “induced an increase in the release of only the low molecular weight form of PLTP” and the “release of PLTP by preadipocytes” value (PLTP [2]; preadipocytes) was “release of the low but not the high molecular form of PLTP was reduced”. For the same compound, the weight loss ([3]; 3 or 5 mg/kg i.p. daily) was “No weight loss was observed”, the “attenuation of weight gain” value ([3]; over three weeks, vs untreated or vehicle-treated controls) was 50% and the “transactivation of PLTP promoter” value (PLTP promoter) was “exhibited the strongest transactivation of the PLTP promoter, and showed induction of PLTP in a dose-dependent manner”. The food intake ([4]; normal C57BL/6J mice) was “reduced food intake”, the glucose levels ([4]; normal C57BL/6J mice) was “did not alter the insulin or the glucose levels significantly” and the insulin levels ([4]; normal C57BL/6J mice) was “did not alter the insulin or the glucose levels significantly”. The “serum PLTP activity” value ([4]; normal C57BL/6J mice) was “increase in serum PLTP activity”, the body weight ([4]; normal C57BL/6J mice, 2 or 5 mg/kg i.p. twice a week, two weeks) was “modest body weight loss” and the percent body fat ([4]; normal C57BL/6J mice, any dose) was “not significantly altered”. The NEFA levels ([4]; normal mice) was “decrease in NEFA levels”, the leptin levels ([4]; normal mice) was “decrease in leptin levels” and the HDL levels ([4]; normal mice, serum) was “remained relatively unchanged”. For the same compound, the total cholesterol level ([4]; normal mice, serum) was “remained relatively unchanged”, the triglyceride levels ([4]; normal mice, serum) was “no significant changes” and the “serum PLTP activity” value [5] was “decrease in serum PLTP activity”. The NEFA levels ([5]; 5 mg/kg) was “only a modest decrease in NEFA levels”, the “hyperglycemia (glucose level)” value ([5]; 5 mg/kg) was “reversed to levels comparable to those of normal controls” and the insulin levels ([5]; 5 mg/kg) was “reduce by approximately three to four-fold”. For the same compound, the “subcutaneous and visceral adipose tissues” value ([5]; 5 mg/kg) was “significantly reduced both the subcutaneous and visceral adipose tissues”, the “decrease in food intake” value ([5]; 5 mg/kg group, relative to untreated or vehicle treated controls) was at most 50% and the “reduction of total body fat” value ([5]; 5 mg/kg, vs untreated and vehicle-treated controls) was “greater than 50%”. The “reduction in total body weight” value ([5]; 2 or 5 mg/kg i.p. twice a week, after two weeks) was “up to 10%”, the total cholesterol level ([5]; serum) was “significantly lower” and the triglyceride levels ([5]; serum) was “no significant changes”. The HDL levels ([5]; vs untreated and vehicle-treated) was “approximately two-fold lower”, the “serum PLTP protein levels” value (PLTP [6]) was “a rise in the serum PLTP protein levels” and the “apoptosis (annexin V binding to phosphatidylserine)” value (NIH-3T3/L1 preadipocytes) was “did not differentially induce apoptosis”.
